According to patent US9656988B2 (Pharmacyclics LLC, priority 2013, dated 2017):
Where two headings read alike, the source gives them in different places.

Target: BTK (Homo sapiens (Human), UniProt Q06187)
Assay: Btk in vitro inhibitory activity (one of Method A TR-FRET, Method B electrophoretic mobility shift, Method C radiometric filter binding)
Format: biochemical
[1] = determined using one of the methods of Example 355a, 355b and 355c, read-out: BTK IC50

Chain of BTK (Q06187 whole entry): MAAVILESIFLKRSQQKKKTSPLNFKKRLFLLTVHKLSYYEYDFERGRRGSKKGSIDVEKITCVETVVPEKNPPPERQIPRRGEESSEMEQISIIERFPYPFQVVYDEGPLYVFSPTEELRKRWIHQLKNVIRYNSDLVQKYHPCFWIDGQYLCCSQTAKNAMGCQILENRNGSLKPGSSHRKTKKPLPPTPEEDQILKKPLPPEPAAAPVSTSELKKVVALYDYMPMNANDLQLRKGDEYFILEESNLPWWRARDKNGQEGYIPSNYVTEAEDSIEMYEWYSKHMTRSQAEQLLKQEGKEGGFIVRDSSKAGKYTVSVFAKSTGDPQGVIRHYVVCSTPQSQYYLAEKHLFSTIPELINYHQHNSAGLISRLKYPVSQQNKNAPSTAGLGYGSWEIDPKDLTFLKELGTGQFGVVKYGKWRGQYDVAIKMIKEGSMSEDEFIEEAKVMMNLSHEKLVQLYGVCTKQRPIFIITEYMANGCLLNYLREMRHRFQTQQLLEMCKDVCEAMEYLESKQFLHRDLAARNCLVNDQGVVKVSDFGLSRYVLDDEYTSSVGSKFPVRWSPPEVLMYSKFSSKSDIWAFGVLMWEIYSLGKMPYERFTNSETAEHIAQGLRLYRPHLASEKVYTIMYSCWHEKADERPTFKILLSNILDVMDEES

| IC50 [1] [nM] | IC50 (read-out: Btk (IC50)) [nM] | IC50 (Btk (IC50)) [nM] | Structure (SMILES) | IC50 [nM] |
| --- | --- | --- | --- | --- |
| < 10 | < 10 |  | C[C@@H]1[C@H](NC(=O)N(C)C)CCCN1c1cnc(C(N)=O)c(Nc2ccc(C3(C#N)CCCC3)cc2)n1 [Example 248, 3-(4-(1-cyanocyclopentyl)phenylamino)-5-((2R,3R)-3-(3,3-dimethylureido)-2-methylpiperidin-1-yl)pyrazine-2-carboxamide] |  |
| < 10 | < 10 |  | C[C@@H]1[C@H](NC(=O)N(C)C)CCCN1c1cnc(C(N)=O)c(Nc2ccc(C3(C(N)=O)CCCC3)cc2)n1 [Example 249, 3-(4-(1-carbamoylcyclopentyl)phenylamino)-5-((2R,3R)-3-(3,3-dimethylureido)-2-methylpiperidin-1-yl)pyrazine-2-carboxamide] |  |
| < 10 | < 10 |  | C[C@@H]1[C@H](NC(=O)N(C)C)CCCN1c1cnc(C(N)=O)c(Nc2ccc(C3(C#N)CCN(C4CCCC4)CC3)cc2)n1 [Example 250, 3-(4-(4-cyano-1-cyclopentylpiperidin-4-yl)phenylamino)-5-((2R,3R)-3-(3,3-dimethylureido)-2-methylpiperidin-1-yl)pyrazine-2-carboxamide] |  |
| < 10 |  | < 10 | C[C@@H]1[C@H](N2CCN(C)C2=O)CCCN1c1cnc(C(N)=O)c(Nc2ccc(C3(C)CCNCC3)cc2)n1 [Example 252, 5-((2R,3R)-2-methyl-3-(3-methyl-2-oxoimidazolidin-1-yl)piperidin-1-yl)-3-(4-(4-methylpiperidin-4-yl)phenylamino)pyrazine-2-carboxamide] |  |
| < 10 | < 10 |  | CCC(=O)N1CCC(C)(c2ccc(Nc3nc(N4CCC[C@@H](N5CCN(C)C5=O)[C@H]4C)cnc3C(N)=O)cc2)CC1 [Example 255, 3-(4-(4-methyl-1-propionylpiperidin-4-yl)phenylamino)-5-((2R,3R)-2-methyl-3-(3-methyl-2-oxoimidazolidin-1-yl)piperidin-1-yl)pyrazine-2-carboxamide] |  |
| < 10 | < 10 |  | CN1CCN([C@@H]2CCCN(c3cnc(C(N)=O)c(Nc4ccc(C5CCN(C6CCCC6)CC5)cc4)n3)C2)C1=O [Example 256, (R)-3-(4-(1-cyclopentylpiperidin-4-yl)phenylamino)-5-(3-(3-methyl-2-oxoimidazolidin-1-yl)piperidin-1-yl)pyrazine-2-carboxamide] |  |
| < 10 |  |  | CN1CCN([C@@H]2CCCN(c3cnc(C(N)=O)c(Nc4ccc(C5CCN(C6CCC6)CC5)cc4)n3)C2)C1=O [Example 258] |  |
| < 10 | < 10 |  | CN1CCN([C@@H]2CCCN(c3cnc(C(N)=O)c(Nc4ccc(C5CCN(C6CC6)CC5)cc4)n3)C2)C1=O [Example 259, (R)-3-(4-(1-cyclopropylpiperidin-4-yl)phenylamino)-5-(3-(3-methyl-2-oxoimidazolidin-1-yl)piperidin-1-yl)pyrazine-2-carboxamide] |  |
| < 10 | < 10 |  | CN1CCN([C@@H]2CCCN(c3cnc(C(N)=O)c(Nc4ccc(C5(C)CCN(C=O)CC5)cc4)n3)C2)C1=O [Example 268, (R)-3-(4-(1-formyl-4-methylpiperidin-4-yl)phenylamino)-5-(3-(3-methyl-2-oxoimidazolidin-1-yl)piperidin-1-yl)pyrazine-2-carboxamide] |  |
| < 10 | < 10 |  | CCC(=O)N1CCC(C)(c2ccc(Nc3nc(N4CCC[C@@H](N5CCN(C)C5=O)C4)cnc3C(N)=O)cc2)CC1 [Example 269, (R)-3-(4-(4-methyl-1-propionylpiperidin-4-yl)phenylamino)-5-(3-(3-methyl-2-oxoimidazolidin-1-yl)piperidin-1-yl)pyrazine-2-carboxamide] |  |
| < 10 | < 10 |  | CN1CCN([C@@H]2CCCN(c3cnc(C(N)=O)c(Nc4ccc(C5(C)CCN(C(=O)C6CC6)CC5)cc4)n3)C2)C1=O [Example 270, (R)-3-(4-(1-(cyclopropanecarbonyl)-4-methylpiperidin-4-yl)phenylamino)-5-(3-(3-methyl-2-oxoimidazolidin-1-yl)piperidin-1-yl)pyrazine-2-carboxamide] |  |
| < 10 | < 10 |  | NC(=O)c1ncc(N2CCC[C@@H](N3CCNC3=O)C2)nc1Nc1ccc(C2CCN(C3CCCC3)CC2)cc1 [Example 274, (R)-3-(4-(1-cyclopentylpiperidin-4-yl)phenylamino)-5-(3-(2-oxoimidazolidin-1-yl)piperidin-1-yl)pyrazine-2-carboxamide] |  |
| < 10 | < 10 |  | CCN1CCN([C@@H]2CCCN(c3cnc(C(N)=O)c(Nc4ccc(C5CCN(C6CCCC6)CC5)cc4)n3)C2)C1=O [Example 275, (R)-3-(4-(1-cyclopentylpiperidin-4-yl)phenylamino)-5-(3-(3-ethyl-2-oxoimidazolidin-1-yl)piperidin-1-yl)pyrazine-2-carboxamide] |  |
| < 10 | < 10 |  | NC(=O)c1ncc(N2CCC[C@@H](N3CCN(C4CC4)C3=O)C2)nc1Nc1ccc(C2CCN(C3CCCC3)CC2)cc1 [Example 277, (R)-3-(4-(1-cyclopentylpiperidin-4-yl)phenylamino)-5-(3-(3-cyclopropyl-2-oxoimidazolidin-1-yl)piperidin-1-yl)pyrazine-2-carboxamide] |  |

Second part, the compound before the results:

| Structure (SMILES) | IC50 [1] [nM] | IC50 (read-out: Btk (IC50)) [nM] | IC50 (Btk (IC50)) [nM] | IC50 [nM] |
| --- | --- | --- | --- | --- |
| C[C@@H]1[C@H](NC(=O)N(C)C)CCCN1c1cnc(C(N)=O)c(Nc2ccc(C3(C(N)=O)CCN(C4CCCC4)CC3)cc2)n1 [Example 251, 3-(4-(4-carbamoyl-1-cyclopentylpiperidin-4-yl)phenylamino)-5-((2R,3R)-3-(3,3-dimethylureido)-2-methylpiperidin-1-yl)pyrazine-2-carboxamide] |  | < 10 |  |  |
| C[C@@H]1[C@H](N2CCN(C)C2=O)CCCN1c1cnc(C(N)=O)c(Nc2ccc(C3(C)CCN(C4CCCC4)CC3)cc2)n1 [Example 253, 3-(4-(1-cyclopentyl-4-methylpiperidin-4-yl)phenylamino)-5-((2R,3R)-2-methyl-3-(3-methyl-2-oxoimidazolidin-1-yl)piperidin-1-yl)pyrazine-2-carboxamide] | < 10 |  |  |  |
| CCN1CCC(c2ccc(Nc3nc(N4CCC[C@@H](N5CCN(C)C5=O)C4)cnc3C(N)=O)cc2)CC1 [Example 257, (R)-3-(4-(1-ethylpiperidin-4-yl)phenylamino)-5-(3-(3-methyl-2-oxoimidazolidin-1-yl)piperidin-1-yl)pyrazine-2-carboxamide] | < 10 | < 10 |  |  |
| CN1CCN([C@@H]2CCCN(c3cnc(C(N)=O)c(Nc4ccc(N5CCS(=O)(=O)CC5)cc4)n3)C2)C1=O [Example 260, (R)-5-(3-(3-methyl-2-oxoimidazolidin-1-yl)piperidin-1-yl)-3-(4-(1,1-dioxothiomorpholino)phenylamino)pyrazine-2-carboxamide] | < 10 | < 10 |  |  |
| CN1CCN([C@@H]2CCCN(c3cnc(C(N)=O)c(Nc4ccccc4)n3)C2)C1=O [Example 261, (R)-5-(3-(3-methyl-2-oxoimidazolidin-1-yl)piperidin-1-yl)-3-(phenylamino)pyrazine-2-carboxamide] | 10 to 100 |  |  | 10 to 100 |
| CN1CCN([C@@H]2CCCN(c3cnc(C(N)=O)c(Nc4ccc(C5(C(F)(F)F)CC5)cc4)n3)C2)C1=O [Example 262, (R)-5-(3-(3-methyl-2-oxoimidazolidin-1-yl)piperidin-1-yl)-3-(4-(1-(trifluoromethyl)cyclopropyl)phenylamino)pyrazine-2-carboxamide] | 10 to 100 |  |  |  |
| CN1CCN([C@@H]2CCCN(c3cnc(C(N)=O)c(Nc4ccc(C5(C)CCN(C6CC6)CC5)cc4)n3)C2)C1=O [Example 263, (R)-3-(4-(1-cyclopropyl-4-methylpiperidin-4-yl)phenylamino)-5-(3-(3-methyl-2-oxoimidazolidin-1-yl)piperidin-1-yl)pyrazine-2-carboxamide] |  | < 10 |  |  |
| CC(C)N1CCC(C)(c2ccc(Nc3nc(N4CCC[C@@H](N5CCN(C)C5=O)C4)cnc3C(N)=O)cc2)CC1 [Example 264, (R)-3-(4-(1-isopropyl-4-methylpiperidin-4-yl)phenylamino)-5-(3-(3-methyl-2-oxoimidazolidin-1-yl)piperidin-1-yl)pyrazine-2-carboxamide] |  | < 10 |  |  |
| CN1CCN([C@@H]2CCCN(c3cnc(C(N)=O)c(Nc4ccc(C5(C)CCN(C6CCCC6)CC5)cc4)n3)C2)C1=O [Example 267, (R)-3-(4-(1-cyclopentyl-4-methylpiperidin-4-yl)phenylamino)-5-(3-(3-methyl-2-oxoimidazolidin-1-yl)piperidin-1-yl)pyrazine-2-carboxamide] | < 10 | < 10 |  |  |
| CN1CCN([C@@H]2CCCN(c3cnc(C(N)=O)c(Nc4ccc(C5(C#N)CCN(C6CCCC6)CC5)cc4)n3)C2)C1=O [Example 271, (R)-3-(4-(4-cyano-1-cyclopentylpiperidin-4-yl)phenylamino)-5-(3-(3-methyl-2-oxoimidazolidin-1-yl)piperidin-1-yl)pyrazine-2-carboxamide] |  | < 10 |  |  |
| CN1CCN([C@@H]2CCCN(c3cnc(C(N)=O)c(Nc4ccc(C5(C(N)=O)CCN(C6CCCC6)CC5)cc4)n3)C2)C1=O [Example 272, (R)-3-(4-(4-carbamoyl-1-cyclopentylpiperidin-4-yl)phenylamino)-5-(3-(3-methyl-2-oxoimidazolidin-1-yl)piperidin-1-yl)pyrazine-2-carboxamide] |  | < 10 |  |  |
| CN1CCN([C@@H]2CCCN(c3cnc(C(N)=O)c(Nc4ccc(C5(C#N)CCN(C6CCC6)CC5)cc4)n3)C2)C1=O [Example 273, (R)-3-(4-(4-cyano-1-cyclobutylpiperidin-4-yl)phenylamino)-5-(3-(3-methyl-2-oxoimidazolidin-1-yl)piperidin-1-yl)pyrazine-2-carboxamide] | < 10 | < 10 |  |  |
| CCN1CCN([C@@H]2CCCN(c3cnc(C(N)=O)c(Nc4ccc(C5(C)CCN(C6CC6)CC5)cc4)n3)C2)C1=O [Example 276, (R)-3-(4-(1-cyclopropyl-4-methylpiperidin-4-yl)phenylamino)-5-(3-(3-ethyl-2-oxoimidazolidin-1-yl)piperidin-1-yl)pyrazine-2-carboxamide] | < 10 | < 10 |  |  |
